Where only a bound is given, the exact number is not on record here.

The first assay deals with electrically-induced convulsions.
Test: not given
The settings on record: after electrically-induced convulsions; cited from earlier work.
As for `S=C(NC1CCCCC1)N1CCC(c2cnc[nH]2)CC1` [thioperamide], the “durations of every convulsive phase” value was “significantly and dose-dependently decrease”.

The assay is the same for the next values; noted with them: in vivo; cited from earlier work.
As to `S=C(NC1CCCCC1)N1CCC(c2cnc[nH]2)CC1` [thioperamide], the electroconvulsive threshold entry is given as “increase the electroconvulsive threshold”.

The target in a further assay is T1, Histamine H3 receptor (Rattus norvegicus, UniProt Q9QYN8).
T1 construct: from tissue; host or cells: rat cerebral cortex membranes
T1 sequence (Q9QYN8 whole entry): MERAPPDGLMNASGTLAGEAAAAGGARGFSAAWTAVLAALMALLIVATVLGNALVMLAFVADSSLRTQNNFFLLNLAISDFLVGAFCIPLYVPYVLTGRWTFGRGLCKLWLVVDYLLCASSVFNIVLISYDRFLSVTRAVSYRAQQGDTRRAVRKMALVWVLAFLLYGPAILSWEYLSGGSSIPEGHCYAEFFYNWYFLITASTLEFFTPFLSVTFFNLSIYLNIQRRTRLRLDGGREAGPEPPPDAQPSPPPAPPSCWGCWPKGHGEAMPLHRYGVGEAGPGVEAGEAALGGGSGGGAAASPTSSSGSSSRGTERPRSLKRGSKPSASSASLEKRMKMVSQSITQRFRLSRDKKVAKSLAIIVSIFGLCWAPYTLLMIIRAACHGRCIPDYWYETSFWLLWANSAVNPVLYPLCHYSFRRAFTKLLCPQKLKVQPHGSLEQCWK
The experiment in a line: In vitro histamine H3 receptor binding analysis, [3H]-Nα-methylhistamine, rat cortical membranes. The following applies: Ki=IC50/(1+([Ligand]/[Kd]). As to the method:
Briefly, animals were sacrificed by decapitation and the cerebral cortex was rapidly removed. Rat cortices were mechanically homogenized with an Omni 1000 motor driven homogenizer in 10 volumes (wt/vol) of Krebs-Ringers Hepes buffer (pH 7.4) containing the following protease inhibitors; EDTA (10 mM), PMSF (0.1 mM), chymostatin (0.2 mg/50 ml) and leupeptin (0.2 mg/50 ml). The homogenate was centrifuged in a Sorvall at ˜40,000×g for 30 min. The pellet was resuspended by mechanical homogenization in 25 ml water and lysed on ice for 30 min. The homogenate was recentrifuged and the membrane lysis was repeated. The membranes were recentrifuged and the final pellet was resuspended in 14 volumes of water to give approximately 200 μg protein/100 μl final concentration. The suspension was stored at −80° C. prior to use. Protein concentrations were determined by Coomassie Plus Protein Assay (Pierce, Rockford, Ill.).
Nonspecific binding (NSB) was accounted for by the inclusion of thioperamide (10 μM). The samples were incubated for 40 min at 25° C. Samples were filtered through glass fiber strips, pre-washed with 0.3% polyethyleneimine, using a Brandell cell harvester. […] Filters were transferred to polyethylene minivials and counted in 3.5 ml of scintillation fluid (Ecolume, ICN Biomedicals, Inc.). […] Saturation and competition experiments were analyzed with the ReceptorFit saturation and competition curve fitting programs (Lundon Software, Inc., Cleveland, Ohio).
Consider `CCCC#CCCc1c[nH]cn1` [Example 28, 4-Heptyl-3-ynylimidazole], for which the Ki amounted to 27 ± 7.5 nM.

For `C(=C/CCc1c[nH]cn1)/CCc1ccccc1` [Example 42, 4-(6-Phenylhex-cis-3-enyl)imidazole], the affinity corresponds to a Ki of 5.5 ± 0.02 nM. On the same count and under the same terms, the value for `C#Cc1c[nH]cn1` [Example 46, 4-Ethynylimidazole] was > 10000 nM; that for `N[C@@H](CC(=O)OCc1ccccc1)C(=O)NCCc1c[nH]cn1` [Example 15, Phenylmethyl-3-(S)-amino-3-(N-(2-imidazol-4-ylethyl)carbamoyl)propanoate] was 81.6 ± 13.6 nM; that for `C(#CCCc1c[nH]cn1)CCCc1ccccc1` [Example 39, 4-(7-Phenylhept-3-ynyl)imidazole] was 6.7 ± 0.6 nM.

Molecule `C(#CCCc1c[nH]cn1)CCCC1CCCCC1` [Example 37, 4-(7-Cyclohexylhept-3-ynyl)imidazole] showed a Ki of 3.4 ± 1.7 nM. Turning to `BrC(Br)=CCCc1c[nH]cn1` [Example 47, 4-(4,4-Dibromobut-3-enyl)imidazole], the Ki was 26 ± 9.6 nM. On the same count and under the same terms, the value for `N[C@H](C(=O)NCCc1c[nH]cn1)c1ccccc1` [Example 9, 2-(S)-Amino-N-(2-imidazol-4-ylethyl)-2-phenylethanamide] was 630 ± 51 nM.

As for `CN[C@@H](Cc1ccccc1)C(=O)NCCc1c[nH]cn1` [Example 7], affinity was put at a Ki of 1650 ± 310 nM.

The molecule `C(#Cc1c[nH]cn1)CCCc1ccccc1` [Example 38, 4-(5-Phenylpent-1-ynyl)imidazole] yielded a Ki of 591 ± 36 nM. Compared with the last molecule, the Ki is about 2.8-fold lower. Same read-out and setting: the value for `CC(=O)N[C@@H](CC1CCCCC1)C(=O)NCCc1c[nH]cn1` [Example 10, 2-(S)-(Acetylamino)-3-cycohexyl-N-(2-imidazol-4-ylethyl)propanamide] was 5490 ± 255 nM.

In turn, `O=C(NCCc1c[nH]cn1)[C@@H]1CC2CCCCC2N1` (stereo partly drawn) [Example 12, (7-Azabicyclo[4.3.0]non-(S)-8-yl)-N-(2-imidazol-4-ylethyl)formamide] returned a Ki of 11.1 ± 0.4 nM.

For `N[C@H](/C=C/CCc1c[nH]cn1)CC1CCCCC1` [Example 26, 1-Cyclohexyl-6-imidazol-4-ylhex-trans-3-en-2-(S)-ylamine], the Ki was 1 ± 0.1 nM. On the same count and under the same terms, the value for `N[C@@H](CC1CCCCC1)C(=O)NCCc1cnc[nH]1` [Example 6, 2-(S)-Amino-3-cyclohexyl-N-(2-imidazol-4-ylethyl)propanamide] was 30.8 ± 2.1 nM; that for `N[C@@H](Cc1ccc(F)cc1)C(=O)NCCc1c[nH]cn1` [Example 5, 2-(S)-Amino-3-(4-flurophenyl)-N-(2-imidazoyl-4-ylethyl)propanamide] was 84.5 ± 12.8 nM. With `C[C@H](Cc1c[nH]cn1)NC(=O)[C@@H]1CC2CCCCC2N1` (stereo partly drawn) [Example 21], the Ki is 231 ± 15 nM.

`BrC(Br)=Cc1c[nH]cn1` [Example 48, 4-(2,2-Dibromovinyl)imidazole]: the Ki is > 10000 nM.

Turning to `CCC#CCCc1c[nH]cn1` [Example 27, 4-Hex-3-ynylimidazole], affinity was put at a Ki of 79 ± 22 nM. Still for that read-out and setting: the value for `N[C@@H](COCc1ccccc1)C(=O)NCCc1c[nH]cn1` [Example 14, 2-(S)-Amino-N-(2-imidazol-4-ylethyl)-3-(phenylmethoxy)propanamide] was 122 ± 11 nM; that for `C(#CCCC1CCCC1)CCc1c[nH]cn1` [Example 30, 4-(6-Cyclopentylhex-3-ynyl)imidazole] was 0.95 ± 0.3 nM. The same measure, in the same setting: the value for `C(#Cc1c[nH]cn1)CCCC1CCCCC1` [Example 36, 4-(5-Cyclohexylpent-1-ynyl)imidazole] was 863 ± 139 nM.

`N[C@@H](Cc1c[nH]cn1)C(=O)NCCc1c[nH]cn1` [Example 16, 2-(S)-Amino-3-imidazol-4-yl-N-(2-imidazol-4-ylethyl)propanamide]: the Ki worked out at 3260 ± 457 nM. Same read-out and setting: the result for `N=C(N)NCCC[C@H](N)C(=O)NCCc1c[nH]cn1` [Example 19, 5-(Amidinoamino)-2-(S)-amino-N-(2-imidazol-4-ylethyl)pentanamide] reads 63 ± 1 nM; that for `Cc1c(C)c(S(=O)(=O)NC(=N)NCCC[C@H](N)C(=O)NCCc2c[nH]cn2)c(C)c2c1OC(C)(C)CC2` [Example 17, 2-(S)-Amino-N-(2-imidazol-4ylethyl)-5-((imino(((2,2,5,7,8-pentamethylchroman-6-yl)sulfonyl)amino)methyl)amino)pentanamide], 14 ± 3 nM; that for `C(=C/CCC1CCCCC1)/CCc1c[nH]cn1` [Example 24, 4-(6-Cyclohexyl-cis-3-enyl)imidazole], 4.2 ± 0.6 nM.

For `c1nc(CCNC[C@@H]2CC3CCCCC3N2)c[nH]1` (stereo partly drawn) [Example 22, ((7-Azabicyclo[4.3.0]non-(S)-8-yl)methyl)(2-imidazol-4-ylethyl)amine], the Ki is 66 ± 4 nM.

Take `N[C@H](Cc1ccccc1)C(=O)NCCc1c[nH]cn1` [Example 4, 2-(R)-Amino-N-(2-imidazol-4-yletyl)-3-phenyl propanamide]: the Ki was > 10000 nM. In turn, `CN(CCc1c[nH]cn1)C(=O)[C@@H]1CC2CCCCC2N1` (stereo partly drawn) [Example 18, (7-Azabicyclo[4.3.0]non-(S)-8-yl)-N-(2-imidazol-4-ylethyl)-N-methylformamide] gave a Ki of 45 ± 11 nM. The molecule `CCCCC#CCCc1c[nH]cn1` [Example 40, 4-Oct-3-ynylimidazole] showed an inhibition constant (Ki) of 3 ± 0.2 nM. Against the preceding molecule, the Ki is about 15-fold lower.

In turn, `N[C@@H](Cc1ccccc1)C(=O)NCCc1c[nH]cn1` [Example 1, 2-(S)-Amino-N-(2-imidazol-4-yletyl)-3-phenyl propanamide] registered a Ki of 104 ± 14 nM. The same measure, in the same setting: the value for `CC(C)C[C@H](N)C(=O)NCCc1c[nH]cn1` [Example 20, 2-(S)-Amino-N-(2-imidazol-4-ylethyl)-4-methylpentanamide] was 122 ± 37 nM; that for `C(=C\CCC1CCCCC1)/CCc1c[nH]cn1` [Example 25, 4-(6-Cyclohexylhex-trans-3-enyl)imidazole] was 16 ± 2 nM. Take `CCCCCC#CCCc1c[nH]cn1` [Example 33, 4-Non-3-ynylimidazole]: the Ki stood at 5.6 ± 1 nM. Against the preceding molecule, the Ki is about 2.9-fold lower.

With `CC(C)(C)CCC#CCCc1c[nH]cn1` [Example 32, 4-(7,7-Dimethyloct-3-ynyl)imidazole], the affinity corresponds to a Ki of 0.8 ± 0.4 nM. With `CCCCCCCC#CCCc1c[nH]cn1` [Example 34, 4-Undec-3-ynylimidazole], the affinity, expressed as Ki, was 2.8 ± 0.7 nM. On to `C#CCCc1c[nH]cn1` [Example 45, 4-But-3-ynylimidazole], for which the Ki turned out to be 66 ± 5.5 nM. On the same count and under the same terms, the result for `C(#CCCC1CCCCC1)CCc1c[nH]cn1` [Example 23, 4-(6-Cyclohexylhex-3-ynyl)imidazole] reads 2.9 ± 0.2 nM; that for `N[C@@H](Cc1ccc(OCc2ccccc2)cc1)C(=O)NCCc1c[nH]cn1` [Example 13, 2-(S)-Amino-N-(2-imidazol-4-ylethyl)-3-(4-(phenylmethoxy)phenyl) propanamide], 199 ± 24 nM. As for `O=C(NCCc1c[nH]cn1)[C@@H]1CCCN1` [Example 2, N-(2-Imidazol-4-ylethyl)-(S)-pyrrolidin-2-ylformamide], the Ki stood at 202 ± 2 nM. With `N[C@@H](CCc1ccccc1)C(=O)NCCc1c[nH]cn1` [Example 11, 2-(S)-Amino-N-(2-imidazol-4-ylethyl)-4-phenylbutanamide], affinity was put at a Ki of 10.9 ± 1.7 nM.

`O=C(NCCc1c[nH]cn1)[C@@H]1Cc2ccccc2CN1` [Example 3] had a Ki of 82.7 ± 7.7 nM.

In the case of `C(#CCCN1CCOCC1)CCc1c[nH]cn1` [Example 35, 4-(6-Imidazol-4-ylhex-3-ynyl)morpholine], the Ki came to 1210 ± 80 nM. Against the preceding molecule, the Ki is about 15-fold higher. On the same count and under the same terms, the value for `N[C@@H](Cc1cccc2ccccc12)C(=O)NCCc1c[nH]cn1` [Example 8, 2-(S)-Amino-N-(2-imidazol-4-ylethyl)-3-naphthylpropanamide] was 299 ± 82 nM; that for `c1ncc(CCCCCCC2CCCCC2)[nH]1` [Example 41, 4-(6-Cyclohexylhexyl)imidazole] was 74.5 nM; that for `CC(C)CCC#CCCc1c[nH]cn1` [Example 29, 4-(7-Methyloct-3-ynyl)imidazole] was 3.7 ± 1.1 nM.

The next assay deals with cat.
Test: not given
The following applies: cited from earlier work.
`S=C(NC1CCCCC1)N1CCC(c2cnc[nH]2)CC1` [thioperamide]: the wakefulness result was “enhanced wakefulness in a dose-dependent fashion”.

Still in this assay, the particulars now being: oral administration; cited from earlier work.
With `C[C@@H](N)Cc1cnc[nH]1` [RAMHA], the “deep slow wave sleep” value is given as “significant increase”.

For the next assay, the system named is histamine synthesis and release.
Test: not given
The following applies: in vivo studies; cited from earlier work.
For the molecule `S=C(NC1CCCCC1)N1CCC(c2cnc[nH]2)CC1` [thioperamide], the “synthesis and release of histamine” value was “increase in synthesis and release of histamine”.

The subject of another assay is rats.
Test: not given
The settings on record: cited from earlier work.
With `S=C(NC1CCCCC1)N1CCC(c2cnc[nH]2)CC1` [thioperamide], the “wakefulness, slow wave and REM sleep” value was “increase wakefulness and decrease slow wave and REM sleep”.

(Values after patent US6448282B1, “1H-4(5)-substituted imidazole derivatives” (Gliatech, Inc., priority 1995, dated 2002).)
